Holding throughout (assay type): biochemical
Test [1] deals with metalloelastase (MMP-12) (Homo sapiens, UniProt P39900). Put plainly: MMP-12 enzyme inhibition assay (coumarin-labelled peptide substrate). The following applies: read-out: IC50 MMP12. On the procedure:
(§1) Compounds of the invention were tested to assess their activities as inhibitors of MMP-1, MMP-2, MMP-9, MMP-14, MMP-12 and TACE. MMP-9 Assay Protocol
(§2) Compounds of the invention were tested for inhibitory activity against 92 kDa gelatinase (MMP-9) in an assay using a coumarin-labeled peptide substrate, (7-methoxycoumarin-4-yl)acetyl-Pro-Leu-Gly-Leu-(3-[2,4-dinitrophenyl]-L-2,3diaminopropionyl)-Ala-Arg-NH2 (McaPLGLDpaAR) (Knight et al, FEBS Lett. 1992; 263-266).
(§3) Stock solutions were made up as follows: Assay Butter: 100 mM Tris-HCl pH 7.6 containing 100 mM NaCl, 10 mM CaCl2, and 0.05% Brij 35.
(§4) Substrate: 0.4 mM McaPLGLDpaAR (from Bachem) (0.437 mg/ml) stock solution in 100% DMSO (stored at −20° C.). Dilute to 8 μM in assay butter.
(§5) Enzyme: Recombinant human 92 kDa gelatinase (MMP-9; APMA (4-aminophenyl mercuric acetate)-activated if necessary) appropriately diluted in assay butter.
(§6) Test Compounds were prepared initially as 10 mM compound solution in 100% DMSO, diluted to 1 mM in 100% DMSO, then serially diluted 3-fold in 100% DMSO across columns 1-10 of a 96-well microtitre plate Assay concentration range, 100 μM (column 1) to 5.1 nM (column 10).
(§7) The assay was performed in a total volume of 100 μL per well in 96-well microtitre plates. Activated enzyme (20 μL) was added to the wells followed by 20 μL of assay butter. Appropriate concentrations of test compounds dissolved in 10 μL of DMSO were then added followed by 50 μL of McaPLGLDpaAR (8 μM, prepared by dilution of DMSO stock in assay butter). For each as say ten concentrations of test compound were examined in duplicate. Control wells lack either enzyme or test compound. The reactions were incubated at 37° C. for 2 hours. The fluorescence at 405 nm was measured immediately with an SLT Fluostar fluorometer (SL T Labinstruments GmbH, Grödig, Austria) using 320 nm excitation, without stopping the reaction.
(§8) The effect of the test compound was determined from the dose response curve generated by the 10 duplicate concentrations of inhibitor. The IC50 (the concentration of compound required to give a 50% decrease in enzyme activity) was obtained by fitting data to the equation, Y=a+((b−a)/(1+(c/X)^d)). (Y=inhibition achieved for a particular dose; X=the dose in nM; a=minimum y or zero % inhibition; b=maximum y or 100% inhibition; c=is the IC50; d=is the slope). The result was rounded to one significant figure.
Compounds of the invention were tested for inhibitory activity against metalloelastase (MMP-12) in an assay using a coumarin-labelled peptide substrate, (7-methoxycoumarin-4-yl)acetyl-Pro-Leu-Gly-Leu-(3-[2,4-dinitrophenyl]-L-2,3-diaminopropionyl)-Ala-Arg-NH2 (McaPLGLDpaAR) (Knight et al, 1992, above). The protocol for this assay was as described for the MMP-9 assay above.

The target of test [2] is T1, gelatinase A (MMP-2) (Homo sapiens, UniProt P08253).
T1 sequence (P08253 110-660): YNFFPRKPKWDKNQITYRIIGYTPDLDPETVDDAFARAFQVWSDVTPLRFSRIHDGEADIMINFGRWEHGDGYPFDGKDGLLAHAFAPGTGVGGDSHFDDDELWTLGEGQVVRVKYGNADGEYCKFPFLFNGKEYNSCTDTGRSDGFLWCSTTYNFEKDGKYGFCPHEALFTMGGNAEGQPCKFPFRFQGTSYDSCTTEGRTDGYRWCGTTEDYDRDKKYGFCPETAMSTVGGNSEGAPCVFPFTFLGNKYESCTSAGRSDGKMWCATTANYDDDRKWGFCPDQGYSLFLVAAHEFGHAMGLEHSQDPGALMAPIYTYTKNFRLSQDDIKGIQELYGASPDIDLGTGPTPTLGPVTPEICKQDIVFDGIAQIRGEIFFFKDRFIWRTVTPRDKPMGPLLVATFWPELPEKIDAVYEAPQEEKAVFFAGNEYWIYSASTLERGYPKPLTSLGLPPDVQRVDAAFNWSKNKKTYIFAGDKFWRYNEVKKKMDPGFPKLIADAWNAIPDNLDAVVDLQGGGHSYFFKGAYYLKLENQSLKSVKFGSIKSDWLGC
The test can be described thus: MMP-2 enzyme inhibition assay (coumarin-labelled peptide substrate). Particulars: read-out: IC50 MMP2. On the procedure: Compounds of the invention were tested to assess their activities as inhibitors of MMP-1, MMP-2, MMP-9, MMP-14, MMP-12 and TACE. MMP-9 Assay Protocol […]
as §3
Substrate: 0.4 mM McaPLGLDpaAR (from Bachem) (0.437 mg/ml) stock solution in 100% DMSO (stored at −20° C.). Dilute to 8 μM in assay butter. […]
as §6, §7, §8
Compounds of the invention were tested for inhibitory activity against gelatinase A (MMP-2) in an assay using a coumarin-labelled peptide substrate, (7-methoxycoumarin-4-yl)acetyl-Pro-Leu-Gly-Leu-(3-[2,4-dinitrophenyl]-L-2,3diaminopropionyl)-Ala-Arg-NH2 (Mca PLGLDpaAR) (Knight et al, 1992, above). The protocol for this assay was as described for the MMP-9 assay above.

Test [3] deals with MMP-14 (Homo sapiens, UniProt P50281). The test can be described thus: MMP-14 enzyme inhibition assay (coumarin-labelled peptide substrate). The following applies: read-out: percentage inhibition MMP14. As for the experimental part: as §1, §2, §3, §4, §5, §6, §7, §8
Compounds of the invention were tested for inhibitory activity against MMP-14 in an assay using a coumarin-labelled peptide substrate, (7-methoxycoumarin-4-yl)acetyl-Pro-Leu-Gly-Leu-(3-[2,4-dinitrophenyl]-L-2,3diaminopropionyl)-Ala-Arg-NH2 (Mca PLGLD paAR) (Knight et al, 1992, above). The protocol for this assay was as described for the MMP-9 assay above.

Test [4] concerns the target 92 kDa gelatinase (MMP-9) (Homo sapiens, UniProt P14780). Put plainly: MMP-9 enzyme inhibition assay (coumarin-labeled peptide substrate). The following applies: read-out: IC50 MMP9. On the procedure:
as §1, §2, §3, §4, §5, §6, §7, §8

Test [5] deals with T2, collagenase (MMP-1) (Homo sapiens, UniProt P03956).
T2 sequence (P03956 100-469): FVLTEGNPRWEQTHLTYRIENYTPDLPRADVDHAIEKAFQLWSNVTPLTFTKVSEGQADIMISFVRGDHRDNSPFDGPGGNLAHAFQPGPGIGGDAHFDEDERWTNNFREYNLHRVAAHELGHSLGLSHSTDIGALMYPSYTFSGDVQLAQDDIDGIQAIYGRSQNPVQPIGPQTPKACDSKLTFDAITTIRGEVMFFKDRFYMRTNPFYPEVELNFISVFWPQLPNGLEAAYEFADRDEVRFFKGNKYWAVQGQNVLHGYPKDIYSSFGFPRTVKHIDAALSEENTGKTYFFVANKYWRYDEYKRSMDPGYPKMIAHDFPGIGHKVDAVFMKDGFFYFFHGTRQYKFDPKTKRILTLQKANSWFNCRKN
The test can be described thus: MMP-1 enzyme inhibition assay (coumarin-labelled peptide substrate). Particulars: @ 5 μM; read-out: percentage inhibition MMP1. As for the experimental part:
as §1, §2, §3, §4, §5, §6, §7, §8
Compounds of the invention were tested for inhibitory activity against collagenase (MMP-1) in an assay using a coumarin-labelled peptide substrate, (7-methoxycoumarin-4-yl)acetyl-Pro-Leu-Gly-Leu-(3-[2,4-dinitrophenyl]-L-2,3diaminopropionyl)-Ala-Arg-NH2 (Mca PLGLDpaAR) (Knight et al, 1992, above). The protocol for this assay was as described for the MMP-9 assay above.

Test [6] has as its target MMP13 (Homo sapiens, UniProt P45452). Put plainly: MMP13 inhibition (Table 1). Particulars: @ 0.1 μM; read-out: percentage inhibition MMP13.

Counter-ions that a name gives are not always drawn. A value given as a limit tells only on which side of the number the result lay.

For orientation: IC50 means the concentration that inhibits the measured activity by half. The term inhibition denotes the relative decrease from the control value, in per cent.

metalloelastase (MMP-12), sequence (P39900 106-470): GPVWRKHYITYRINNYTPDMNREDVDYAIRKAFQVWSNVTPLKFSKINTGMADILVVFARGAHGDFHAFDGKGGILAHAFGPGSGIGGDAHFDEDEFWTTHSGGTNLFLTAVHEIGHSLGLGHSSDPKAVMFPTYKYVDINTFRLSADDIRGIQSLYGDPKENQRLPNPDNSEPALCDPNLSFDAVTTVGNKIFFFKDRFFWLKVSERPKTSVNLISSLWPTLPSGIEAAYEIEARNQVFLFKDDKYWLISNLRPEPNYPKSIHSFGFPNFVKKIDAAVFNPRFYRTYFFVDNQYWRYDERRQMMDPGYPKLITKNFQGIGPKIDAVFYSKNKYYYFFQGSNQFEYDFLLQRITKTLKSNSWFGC
92 kDa gelatinase (MMP-9), sequence (P14780 107-707 limits assumed): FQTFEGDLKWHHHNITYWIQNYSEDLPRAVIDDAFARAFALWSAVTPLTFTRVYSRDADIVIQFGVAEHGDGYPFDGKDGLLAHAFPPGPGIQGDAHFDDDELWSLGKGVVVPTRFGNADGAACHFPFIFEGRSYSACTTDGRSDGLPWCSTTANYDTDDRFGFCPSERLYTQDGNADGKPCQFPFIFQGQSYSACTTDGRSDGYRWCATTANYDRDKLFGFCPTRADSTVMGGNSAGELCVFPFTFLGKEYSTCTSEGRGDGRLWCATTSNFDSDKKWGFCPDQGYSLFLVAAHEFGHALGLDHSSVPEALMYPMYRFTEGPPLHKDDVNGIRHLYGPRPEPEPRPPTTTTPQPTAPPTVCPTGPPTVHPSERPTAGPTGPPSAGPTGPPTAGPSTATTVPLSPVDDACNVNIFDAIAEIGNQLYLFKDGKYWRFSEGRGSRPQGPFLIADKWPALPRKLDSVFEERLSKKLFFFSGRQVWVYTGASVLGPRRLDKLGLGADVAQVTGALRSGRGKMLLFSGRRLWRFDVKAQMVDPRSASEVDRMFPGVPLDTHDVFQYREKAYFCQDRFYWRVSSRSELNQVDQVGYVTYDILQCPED

Turning to `CC(C)(C)OC(=O)N1CCC[C@@H]1[C@H](CS(=O)(=O)N1CCc2cc(Cl)c(Cl)cc2C1)N(O)C=O` (racemic) [Example 46, tert-butyl (2RS)-2-{(1RS)-2-[(6,7-dichloro-3,4-dihydro-isoquinolin-2(1H)-yl)sulfonyl]-1-[formyl(hydroxy)amino]ethyl}pyrrolidine-1-carboxylate], the figures for the IC50 in test [1] and in test [2] were 460 nM and at least 5000 nM, respectively. Further, the inhibition at 0.1 µM in test [3] (@ 0.1 μM) amounted to 19%.
As for `O=CN(O)C(CS(=O)(=O)N1CCc2ccccc2C1)c1ccsc1` (stereo not shown) [Example 7, N-[2-(3,4-dihydroisoquinolin-2(1H)-ylsulfonyl)-1-(3-thienyl)ethyl]-N-hydroxyformamide], the IC50 in test [1] is 18 nM; in test [2], 784 nM; in test [4] it was above 5000 nM. Also, the inhibition at 5 µM stood at 71% in test [3] and 31% in test [5].
On to `O=CN(O)C(CS(=O)(=O)N1CCc2ccccc2C1)c1cccnc1` (stereo not shown) [Example 11, N-[2-(3,4-dihydroisoquinolin-2(1H)-ylsulfonyl)-1-pyridin-3-ylethyl]-N-hydroxyformamide, hydrochloride salt], for which the figures for the IC50 in test [1] and in test [4] were 26 nM and above 5000 nM, respectively. In test [6], the inhibition at 0.1 µM amounted to 15%.
As to `COc1cc2c(cc1OC)CN(S(=O)(=O)CC(C1CCCC1)N(O)C=O)CC2` (stereo not shown) [Example 15, N-{1-cyclopentyl-2-[(6,7-dimethoxy-3,4-dihydroisoquinolin-2(1H)-yl)sulfonyl]ethyl}-N-hydroxyformamide], the IC50 in test [1] is 185 nM; in test [2], above 5000 nM; in test [4], above 5000 nM. For the same molecule, the inhibition at 5 µM in test [3] and in test [5] was 0% each time.
On to `CCC(CC)C(CS(=O)(=O)N1CCc2cc(OC)c(OC)cc2C1)N(O)C=O` (stereo not shown) [Example 17, N-(1-{[(6,7-dimethoxy-3,4-dihydroisoquinolin-2(1H)-yl)sulfonyl]methyl}-2-ethylbutyl)-N-hydroxyformamide], for which the IC50 was 103 nM in test [1], above 5000 nM in test [2] and above 5000 nM in test [4]. Moreover, the inhibition at 5 µM in test [3] and in test [5] was 0% in each case.
Take `COc1cc2c(cc1OC)CN(S(=O)(=O)CC(N(O)C=O)C(C)(C)C)CC2` (stereo not shown) [Example 20, N-(1-{[(6,7-dimethoxy-3,4-dihydroisoquinolin-2(1H)-yl)sulfonyl]methyl}-2,2-dimethylpropyl)-N-hydroxyformamide]: the IC50 is 280 nM in test [1], above 5000 nM in test [2] and above 5000 nM in test [4]. Further, the inhibition at 5 µM in test [3] and in test [5] was 0% in each case.
Regarding `CC(C)CC(CS(=O)(=O)N1CCc2ccc(OC(C)C)cc2C1)N(O)C=O` (stereo not shown) [Example 51, N-hydroxy-N-(1-{[(7-isopropoxy-3,4-dihydroisoquinolin-2(1H)-yl)sulfonyl]methyl}-3-methylbutyl)formamide], the IC50 stood at 109 nM in test [1] and 1330 nM in test [2].
The matching figures for `CSCCC(CS(=O)(=O)N1CCc2ccc(C(C)(C)C)cc2C1)N(O)C=O` (stereo not shown) [Example 54, N-[1-{[(7-tert-butyl-3,4-dihydroisoquinolin-2(1H)-yl)-sulfonyl]methyl}-3-(methylthio)propyl]-N-hydroxyformamide]: 234 nM and above 5000 nM.
The corresponding values for `CC(C)(C)c1ccc2c(c1)CN(S(=O)(=O)CC(C1CCOCC1)N(O)C=O)CC2` (stereo not shown) [Example 66, N-[2-[(7-tert-butyl-3,4-dihydroisoquinolin-2(1H)-yl)sulfonyl]-1-(tetrahydro-2H-pyran-4-yl)ethyl]-N-hydroxyformamide] are 209 nM and above 5000 nM.
For the molecule `CCOC(=O)C1CC1C(CS(=O)(=O)N1CCc2cc(OC)c(OC)cc2C1)N(O)C=O` (stereo not shown) [Example 67, ethyl 2-[2-[(6,7-dimethoxy-3,4-dihydroisoquinolin-2(1H)-yl)sulfonyl]-1-[formyl(hydroxy)amino]ethyl]cyclopropanecarboxylate], the IC50 was 111 nM in test [1] and above 5000 nM in test [2].
`COc1cc2c(cc1OC)CN(S(=O)(=O)CC(C1CC1C(=O)O)N(O)C=O)CC2` (stereo not shown) [Example 71, 2-[2-[(6,7-dimethoxy-3,4-dihydroisoquinolin-2(1H)-yl)-sulfonyl]-1-[formyl(hydroxy)amino]ethyl]cyclopropanecarboxylic acid]: the IC50 is 585 nM in test [1] and above 5000 nM in test [2].
`CC(C)Oc1ccc2c(c1)CN(S(=O)(=O)CC(C1CCCC1)N(O)C=O)CC2` (stereo not shown) [Example 78, N-{1-cyclopentyl-2-[(7-isopropoxy-3,4-dihydroisoquinolin-2(1H)-yl)sulfonyl]ethyl}-N-hydroxyformamide]: the IC50 is 322 nM in test [1] and above 5000 nM in test [2].
For `COc1cc2c(cc1OC)CN(S(=O)(=O)CC(C1CC1)N(O)C=O)CC2` (stereo not shown) [Example 84, N-{1-cyclopropyl-2-[(6,7-dimethoxy-3,4-dihydro-isoquinolin-2(1H)-yl)sulfonyl]ethyl}-N-hydroxyformamide], the IC50 in test [1] was 366 nM; in test [2], above 5000 nM.

The values are drawn from patent US7879876B2, “Sulfonamide derivatives and use thereof for the modulation of metalloproteinases” (Merck Serono SA, priority 2005, dated 2011).
